Patent US5854252A, “Dihalotriazolopyrimidine derivatives” (Shell Internationale Research Maatschappij B.V., priority 1993, dated 1998)
Converted amounts (≈) assume the structure as drawn.

What was measured:
Gaeumannomyces graminis = assay: MIC by serial dilution, Example 55, Gaeumannomyces graminis; assay type: cell-based; settings: microtitre plates, 20° C., 6-8 days
Procedure: (§1) The MIC (Minimum Inhibition Concentration)-values were determined by serial dilution tests using 48-well microtitre plates. The dilution of the test compounds in the nutrient solution and the distribution to the wells were carried out by a TECAN RSP 5000 robotic sample processor.
(§2) For preparation of the nutrient solution, V8 juice (Trade Mark) was neutralised with calcium carbonate and centrifuged. The supernatant was diluted with distilled water (1:5) to the final concentration.
(§3) The fungi (Alternaria solani, Botrytis cinerea, Pseudocercosporella herpotrichoides, Micronectriella nivalis, Gaeumannomyces graminis) were added into the wells as a droplet of spore suspension. The microtitre plates were then incubated at 20° C. for 6-8 days. The MIC-value, which was defined to be the lowest concentration in the dilution series without mycelial growth, was determined by visual inspection of the plates.

[1] = tested on: Pseudocercosporella herpotrichoides; assay: Activity against wheat eyespot in-vitro (PHI), Example 53(j); assay type: cell-based; settings: 50 ppm, 12 days at 20° C.
Procedure: This test measures the in vitro activity of compounds against the fungus causing wheat eyespot. The test compound is dissolved or suspended in acetone and is added into 4 ml aliquots of half strength Potato Dextrose Broth dispensed in 25-compartment petri dishes to give a final concentration of 50 ppm compound and 2.5% acetone. Each compartment is inoculated with a 6 mm diameter plug of agar/mycelium taken from a 14 day old culture of P. herpotrichoides. Plates are incubated at 20° C. for 12 days until the assessment of mycelial growth. The extent of disease control in all the above tests is expressed as a rating compared with either an untreated control or a diluent-sprayed-control, according to the criteria: […]

Micronectriella nivalis = assay: MIC by serial dilution, Example 55, Micronectriella nivalis; assay type: cell-based; settings: microtitre plates, 20° C., 6-8 days
Procedure: as §1, §2, §3

[2] = tested on: Pseudocercosporella herpotrichoides; assay: MIC by serial dilution, Example 55, Pseudocercosporella herpotrichoides; assay type: cell-based; settings: Oculimacula yallundae; microtitre plates, 20° C., 6-8 days
Procedure: as §1, §2, §3

Leptosphaeria nodorum = assay: Activity against wheat leafspot (LN), Example 53(f); assay type: in vivo; settings: therapeutic foliar spray, 1000 ppm
Procedure: The test is a direct therapeutic one, using a foliar spray. Leaves of wheat plants (cv Norman), at the single leaf stage, are inoculated by spraying with an aqueous suspension containing 1×10^6 spores/ml. The inoculated plants are kept for 24 hours in a high humidity compartment prior to treatment. The plants are sprayed with a solution of the test compound at a dosage of 1000 ppm using an automated sprayline as described under (a). After drying, the plants are kept for 6-8 days at 22° C. and moderate humidity, followed by assessment. Assessment is based on the density of lesions per leaf compared with that on leaves of control plants. The extent of disease control in all the above tests is expressed as a rating compared with either an untreated control or a diluent-sprayed-control, according to the criteria: […]

Cercospora arachidicola = assay: Field pot test with Cercospora arachidicola on peanuts; assay type: in vivo; settings: Mycosphaerella arachidis, topical, 360 h, 500 μg/ml spray, 1000 l/ha, 15 days after treatment, Abbott formula, read-out: % efficacy Cercospora arachidicola
Procedure: 15 Seeds of peanuts were sown in pots filled with a soil substrate. When the plants have developed 4 true leaves (approx. 12-14 days after seeding) the fungicides and the test compounds were applied using a hand sprayer. The test compounds were applied at a concentration of 500 μg/ml in a […] containing 10% acetone and 0.05% Triton X 155 in water. The total amount of […] corresponded to 1000 l/ha. Six replicates (pots) per treatment were used. 2 days after treatment the pots were exposed to peanut plants in the field on which the fungus, Cercospora arachidicola, had formed sporulating lesions. The assessment was carried out 15 days after treatment by estimating the percentage of infected leaf area. The % efficacy was calculated using the Abbott formula.

Puccinia arachidis = assay: Field pot test with Puccinia arachidis on peanuts; assay type: in vivo; settings: topical, 456 h, 500 μg/ml spray, 1000 l/ha, 19 days after treatment, Abbott formula, read-out: % efficacy Puccinia arachidis
Procedure: 15 seeds of peanuts were sown in pots filled with a soil substrate. When the plants have developed 4 true leaves the fungicides and the test compounds were applied using a hand sprayer. The test compounds were applied at a concentration of 500 μg/ml in a […] containing 10% acetone and 0.05% Triton X 155 in water. The total amount of […] corresponded to 1000 l/ha. Six replicates per treatment were used. 2 Days after treatment the pots were exposed to peanut plants in the field on which the fungus, Puccinia arachidis, had formed sporulating pustules on the leaves. The assessment was carried out 19 days after treatment by estimating the percentage of infected leaf area. The % efficacy was calculated using the Abbott formula.

Botrytis cinerea [3] = assay: MIC by serial dilution, Example 55, Botrytis cinerea; assay type: cell-based; settings: microtitre plates, 20° C., 6-8 days
Procedure: as §1, §2, §3

Alternaria solani [4] = assay: MIC by serial dilution, Example 55, Alternaria solani; assay type: cell-based; settings: microtitre plates, 20° C., 6-8 days
Procedure: as §1, §2, §3

Alternaria solani [5] = assay: MIC in the serial dilution test, Example 56, Alternaria solani; assay type: cell-based; settings: microtiter serial dilution, 6-12 days
Procedure: (§4) The serial dilution test was carried out using Microtiter test with 24 or 48 wells per plate. The test compounds were used a 1000 μg/ml aqueous stock suspension containing 20% acetone which was then sterile filtered in a 0.2μ filter. The dilution of the sterile fungicide suspension with the nutrient solution and the subsequent pipetting into the different wells was carried out using a TECAN RSP 5000 Robotic Sample Processor. The concentrations tested ranged from 100 μg/ml down to 0.05 μg/ml. 12 Dilution steps were made. The nutrient solution was chosen according to the nutrient requirements of the pathogen. The inoculum was added as a droplet (50 μl) of a spore suspension (5×10^8 /ml) into the wells. After 6-12 days incubation at suitable temperatures, the MIC value was determined by visual estimation. The lowest concentration in the dilution row without mycelial growth was defined as the MIC value.

Rhizoctonia solani = assay: MIC in the serial dilution test, Example 56, Rhizoctonia solani; assay type: cell-based; settings: microtiter serial dilution, 6-12 days
Procedure: as §4

Botrytis cinerea [6] = assay: MIC in the serial dilution test, Example 56, Botrytis cinerea; assay type: cell-based; settings: microtiter serial dilution, 6-12 days
Procedure: as §4

SMILES: Clc1nc2ncnn2c(Cl)c1-c1ccc(Br)cc1 [Example 19]
- MIC (Gaeumannomyces graminis): 0.1 µg/mL (≈ 0.291 µM)
- Fungicidal Activity PHI (disease control rating) [1]: 2 (greater than 80% disease control)
- MIC (Micronectriella nivalis): 6.25 µg/mL (≈ 18.2 µM)
- MIC [2]: 12.5 µg/mL (≈ 36.3 µM)

SMILES: COc1cccc(-c2c(Cl)nc3ncnn3c2Cl)c1OC [Example 21]
- Fungicidal Activity PHI (disease control rating) [1]: 2 (greater than 80% disease control)

SMILES: Clc1nc2ncnn2c(Cl)c1-c1cccc2ccccc12 [Example 23]
- Fungicidal Activity PHI (disease control rating) [1]: 1 (about 50-80% disease control)

SMILES: CCOc1cccc(-c2c(Cl)nc3ncnn3c2Cl)c1OCC [Example 24]
- Fungicidal Activity PHI (disease control rating) [1]: 2 (greater than 80% disease control)
- Fungicidal Activity LN (disease control rating) (Leptosphaeria nodorum): 1 (about 50-80% disease control)

SMILES: Clc1ccc(-c2c(Cl)nc3ncnn3c2Cl)cc1Cl [Example 25]
- pest or weed control at 500 µg/mL (Cercospora arachidicola): 25%
- pest or weed control at 500 µg/mL (Puccinia arachidis): 42%
- Fungicidal Activity LN (disease control rating) (Leptosphaeria nodorum): 1 (about 50-80% disease control)

SMILES: Cc1ccc(-c2c(Cl)nc3ncnn3c2Cl)cc1C [Example 31]
- MIC (Gaeumannomyces graminis): 0.78 µg/mL (≈ 2.66 µM)
- MIC (Micronectriella nivalis): 3.13 µg/mL (≈ 10.7 µM)
- MIC [2]: 12.5 µg/mL (≈ 42.6 µM)

SMILES: CC(C)(C)c1ccc(-c2c(Cl)nc3ncnn3c2Cl)cc1 [Example 36]
- MIC (Gaeumannomyces graminis): 0.78 µg/mL (≈ 2.43 µM)
- MIC (Micronectriella nivalis): 0.39 µg/mL (≈ 1.21 µM)
- MIC [2]: 3.13 µg/mL (≈ 9.74 µM)

SMILES: COc1ccc(-c2c(Cl)nc3ncnn3c2Cl)cc1 [Example 38]
- pest or weed control at 500 µg/mL (Cercospora arachidicola): 42%
- pest or weed control at 500 µg/mL (Puccinia arachidis): 42%

SMILES: Fc1cccc(Cl)c1-c1c(Br)nc2ncnn2c1Br [Example 41]
- MIC (Botrytis cinerea [3]): 25 µg/mL (≈ 61.5 µM)
- MIC (Alternaria solani [4]): 50 µg/mL (≈ 123 µM)

SMILES: FC(F)(F)c1ccc(-c2c(Br)nc3ncnn3c2Br)cc1 [Example 42]
- MIC (Botrytis cinerea [3]): > 100 µg/mL
- MIC (Alternaria solani [4]): > 100 µg/mL

SMILES: Fc1cccc(-c2c(Br)nc3ncnn3c2Br)c1 [Example 43]
- MIC (Botrytis cinerea [3]): > 100 µg/mL
- MIC (Alternaria solani [4]): > 100 µg/mL

SMILES: FC(F)(F)c1ccccc1-c1c(Br)nc2ncnn2c1Br [Example 44]
- MIC (Botrytis cinerea [3]): > 100 µg/mL
- MIC (Alternaria solani [4]): > 100 µg/mL

SMILES: Cc1cccc(C)c1Oc1c(Cl)nc2ncnn2c1Cl [Example 48]
- MIC (Alternaria solani [5]): 25 µg/mL (≈ 80.9 µM)
- MIC (Rhizoctonia solani): > 100 µg/mL
- MIC (Botrytis cinerea [6]): > 100 µg/mL

SMILES: Cc1cccc(Oc2c(Cl)nc3ncnn3c2Cl)c1 [Example 49]
- MIC (Alternaria solani [5]): 25 µg/mL (≈ 84.7 µM)
- MIC (Rhizoctonia solani): > 100 µg/mL
- MIC (Botrytis cinerea [6]): 6.25 µg/mL (≈ 21.2 µM)

SMILES: CCOc1c(Cl)nc2ncnn2c1Cl [Example 50]
- MIC (Alternaria solani [5]): 12.5 µg/mL (≈ 53.6 µM)
- MIC (Rhizoctonia solani): 100 µg/mL (≈ 429 µM)
- MIC (Botrytis cinerea [6]): 25 µg/mL (≈ 107 µM)

SMILES: CC(C)c1c(Cl)nc2ncnn2c1Cl [Example 51]
- MIC (Alternaria solani [5]): 12.5 µg/mL (≈ 54.1 µM)
- MIC (Rhizoctonia solani): 25 µg/mL (≈ 108 µM)
- MIC (Botrytis cinerea [6]): 12.5 µg/mL (≈ 54.1 µM)
